In assay [1] the test system is astrocytes. Nature of the assay: Time until mitochondrial membrane potential (ΔΨ, TMRE) collapse during t-BuOOH oxidative stress. Conditions: for time until ΔΨ collapse: oligomycin 1 μg/ml 30 min pretreatment, t-buOOH 100 μM; for mean time until ΔΨ collapse: oligomycin pretreatment + extracellular ATP 10 minutes, then oxidative stress. In kind it is cell-based, mouse. Here is the method: Primary cultures of astrocytes were prepared as previously published (Lin et al., 2005). C57BL/6 male mice were purchased from the National Institute of Aging and maintained in standard accredited housing conditions at the University of Texas Health Science Center Animal Facility. Animal protocols were approved by our Institutional Animal Care Use Committee. Astrocytes were cultured in DMEM F-12 media (Invitrogen, # 11039-021) supplemented with 2 mM glutamine, nonessential amino acids, 10% fetal calf serum, 100 U/ml penicillin/streptomycin (Cambrex BioScience Walkersville, #17-602E) and 1% fungizone (Invitrogen, #15290-018) at 37° C. in an atmosphere containing 5% CO2. The culture medium was changed every 3-5 days. Confluent cells were gently removed by a trypsin EDTA solution and re-plated on 35 mm glass bottom chambers (Bioptechs #04200415C) prior to imaging experiments 3-4 days later. Cells were maintained in plastic culture flasks until the final re-seeding of cells onto a glass bottom chamber and were passed up to 3 times for astrocyte only experiments. For co-culture experiments with neurons, primary astrocytes were plated directly onto corning transwell-clear permeable supports, which physically separates the two cell-types by ˜1 mm (# 07-200-170, Fisher scientific). Astrocytes were cultured in transwells until they were ˜70% confluent. Mouse cortical neurons (Cambrex Bio Science Walkersville Inc., # M-CX-300) were then cultured onto 6 well mat-tek glass bottom plates and maintained in Neurobasal Medium (Invitrogen, # 21103-049), 2 mM L-Glutamine (Cambrex BioScience Walkersville, #17-605E), 100 U/ml penicillin/streptomycin (Cambrex BioScience Walkersville, #17-602E) and B-27 with (Invitrogen, #17504-044) and without antioxidants (Invitrogen, #10889-038), which controls glia contamination to less than 0.5%. The transwell supports with cultured astrocytes were placed in the neuron seeded glass bottom chambers for four days before imaging and both cell types were then maintained in neuronal media. For neuron only experiments, the astrocytes on the transwell supports were removed prior to treatments and imaging.
Mitochondrial membrane potentials (ΔΨs) was measured as previously described using the potential sensitive dye tetra-methyl rhodamine ethyl ester (TMRE, Molecular Probes, #T-669) (Lin and Lechleiter, 2002). Images were acquired with a 60× oil 1.4 NA objective on a Nikon PCM2000 confocal microscope custom adapted for two-photon imaging. A Ti-sapphire Coherent Mira 900 Laser pumped with a 5W Verdi laser (Coherent Inc., Santa Clara, Calif.) was used to excite TMRE at 800 nm A neutral-density filter wheel was used to attenuate the laser intensity so that no detectable photobleaching of TMRE was observed.
To investigate this, primary cultures of astrocytes were prepared from the brains of young (4-6 months) and old (26-28 months) mice and re-plated on glass coverslips prior to each imaging experiment as previously described. Seeded glass coverslips were then sealed in an open chamber (Bioptechs Delta T) and perfused at 37° C. with the potential sensitive dye tetramethyl rhodamine ethyl ester (TMRE, 200 nM, Molecular Probes/Invitrogen) to label astrocyte mitochondria. Mitochondrial membrane potentials (ΔΨs) were measured every 5 minutes using two-photon microscopy. Each image is a maximum intensity projection of a z-stack of six optical sections (1-μm steps). Scale bar is 10 μm. Plated cells were continuously perfused at 37° C. with culture medium containing TMRE (200 nM) and imaged with 2-photon microscopy (800 nm). Oxidative stress was applied to the cells in the perfusate with t-BuOOH (100 μM). Cell viability was then monitored by the collapse of ΔΨ (TMRE fluorescence) to 10% of its initial value. The time course of ΔΨ collapse is plotted for 3 astrocytes (A1, A2, A3) in each culture (FIGS. 1B and 2B). Fluorescent units are scaled to 100% at 0 hours. […]

Assay [2] concerns astrocytes. As to the kind of experiment: O2 consumption assay (Clark electrode respirometry). In kind it is cell-based, mouse. As for the experimental part:
O2 consumption was monitored with a Clark electrode (Mitocell S200 micro respirometry system; Strathkelvin Instruments). Astrocytes (500 μl at 10^5 cells/ml) were loaded into a 500 μl MT200A Respirometer Chamber, suspended by a fixed-speed solid-state magnetic stirrer inside the chamber and maintained at 37° C. by a circulating water bath. O2 was monitored for 4 minutes before injecting 5 μl of ATP (200 μM) into the chamber. O2 consumption was then monitored for another 4 minutes. Changes in O2 levels were calculated by respirometry software. For control recordings, 5 μl of buffer was injected into chamber. Oligomycin astrocytes were treated with oligomycin (0.01 μM) for 30 minutes before trypsinization and loading into chamber.
To further investigate the importance of mitochondrial metabolism on the protective effect of P2Y-R activation, we first measured the rate of O2 consumption for astrocytes with and without P2Y-R activation. Primary cultures of astrocytes were grown to ˜70% confluency, gently removed by trypsin EDTA and resuspended in PBS buffer. Astrocytes (10^5 cells/ml) were then loaded into a 500 μl Respirometer Chamber MT200A) and maintained at 37° C. by a circulating water bath. FIG. 5A depicts plots of O2 levels in suspended astrocytes as labeled. FIG. 5B depicts a histogram showing the average change in O2 consumption with 2 μM ATP compared to untreated cells (control). Bars on the right show O2 consumption of Astrocytes are preloaded 0.01 uM Oligomycin (30 minutes).

The text below walks through data of patent publication US8618074B2, “GPCR enhanced neuroprotection to treat brain injury” (Board of Regents of the University of Texas System, priority 2007, dated 2013).

In the case of `Nc1ncnc2c1ncn2[C@@H]1O[C@H](COP(=O)(O)OP(=O)(O)OP(=O)(O)O)[C@@H](O)[C@H]1O` [ATP], the “average time until ΔΨ collapse” value in the assay with astrocytes [1] (old astrocytes, ATP 10 μM 10 min prior to t-BuOOH 100 μM) amounted to 6.65 ± 0.24 h. The “average time for ΔΨ to collapse” value with astrocytes [1] (young astrocytes, ATP 10 μM 10 min prior to t-BuOOH 100 μM) is 7.35 ± 0.23 h. The “rate of O2 consumption” value with astrocytes [2] (bolus of ATP, 2 μM final concentration) was found to be 3.67 ± 0.3 nmol/min.
For the compound `CC[C@H]1/C=C/C=C/C[C@@H](C)[C@H](O)[C@@](C)(O)C(=O)[C@@H](C)[C@H](O)[C@@H](C)C(=O)[C@@H](C)[C@H](O)[C@@H](C)/C=C/C(=O)O[C@@H]2[C@H](C)[C@H](CC1)O[C@]1(CC[C@H](C)[C@H](C[C@@H](C)O)O1)[C@H]2C` [oligomycin], the “time until ΔΨ collapse” value amounted to 4.16 ± 0.14 h with astrocytes [1] (old astrocytes) and 5.15 ± 0.08 h in the assay with astrocytes [1] (young astrocytes). Further, the figures for the “mean time until ΔΨ collapse” value in the assay with astrocytes [1] (old astrocytes) and with astrocytes [1] (young astrocytes) were 3.21±0.08 and 4.69±0.23, respectively. Further, the “rate of O2 consumption” value in the assay on astrocytes [2] (oligomycin 0.01 μM 30 minutes + extracellular ATP) came to 1.19 ± 0.27 nmol/min; with astrocytes [2] (oligomycin 0.01 μM, 30 minutes), 0.97 ± 0.21 nmol/min.
